Assay results published in patent US8691799B2, “Materials and methods for treatment of cancer and identification of anti-cancer compounds” (priority 2001, dated 2014).
pIC50: −log10 of the molar value.

Legend:
phosphotyrosine Src = test: Western blotting for phosphotyrosine Src; format: cell-based, human; conditions: A549 and MDA-MB-468 cells, various concentrations, 4 hr
Protocol: (§1) Western Blotting. Treated cell samples were lysed in 30 mM Hepes, pH 7.5, 10 mM NaCl, 5 mM MgCl2, 25 mM NaF, 1 mM EGTA, 1% Triton-X-100, 10% glycerol, 2 mM sodium orthovanadate, 10 μg/ml aprotinin, 10 μg/ml soybean trypsin inhibitor, 25 μg/ml leupeptin, 2 mM PMSF, and 6.4 mg/ml p-nitrophenylphosphate. Phospho-STAT3, phospho-AKT, phospho-MEK, and phospho-p42/p44 MAPK antibodies were obtained from Cell Signaling Technologies, Cambridge, Mass. Antibodies to STAT3, JAK2, and phospho-INK were purchased from Santa Cruz Biotechnology, Santa Cruz, Calif. Phospho-JAK2 antibody came from Upstate Biotechnology, Lake Placid, N.Y. Membranes were blocked in either 5% milk in PBS, pH 7.4, containing 0.1% Tween-20 (PBS-T) or 1% BSA in TBS, pH 7.5, containing 0.1% Tween-20 (TBS-T). Phospho-specific antibodies (excepting P-MAPK and P-JNK) were incubated in 1% BSA in TBS-T while all other antibodies were diluted in 5% milk in PBS-T for either 2 hr at room temperature or overnight at 4° C. HRP-conjugated secondary antibodies (Jackson ImmunoResearch) were diluted in 5% milk in either PBS-T or TBS-T at 1:1000 dilution for one hour at room temperature. Western blots were visualized using enhanced chemiluminescence as described previously (Blaskovich, M. A. et al. Nat. Biotechnol., 2000, 18:1065-1070).

phosphotyrosine JAK2 = test: Western blotting for phosphotyrosine JAK2; format: cell-based, human
Protocol: as §1

v-Src/NIH 3T3 tumors = test: Antitumor activity, v-Src-transformed NIH 3T3 tumors in nude mice; format: in vivo
Excerpt: Antitumor Activity in the Nude Mouse Tumor Xenograft Model. Nude mice and C57 BL-6 black mice (National Cancer Institute, Bethesda, Md.) were maintained in accordance with the Institutional Animal Care and Use Committee (IACUC) procedures and guidelines. v-Src- and oncogenic H-Ras-transformed NIH 3T3, A549, MDA-MB-468 and Calu-1 cells were harvested, resuspended in PBS and injected s.c. into the right and left flank (10×10^6 cells per flank) of 8 week old female nude mice as reported previously (Sun, J. et al. Cancer Res., 1999, 59:4919-4926). Similarly, murine B16-F10 Melanoma cells were injected s.c. into the right and left flank (10^6 cells per flank) of C57 black mice. […] […] The tumor volumes were determined by measuring the length (l) and the width (w) and calculating the volume (V=1w^2/2) as described previously (Sun, J. et al. Cancer Res., 1999, 59:4919-4926). Statistical significance between control and treated animals were evaluated by using Student's t-test. For the mouse survival experiments, C57 BL-6 black mice were implanted s.c. with B16-F10 cells (10^5 to 10^6 cells per flank). […] Percent surviving mice was determined by monitoring the death of mice until all mice died. Two experiments of 12 animals each (6 control and 6 treated with JSI-124) were carried out. For statistical analysis: for each of the two experiments, mice receiving JSI-124 were compared to those receiving vehicle control with respect to survival using the permutation log rank test as implemented in the statistical software package, ProcStatXact (p-values are two sided and exact).

CC(C)(O)/C=C/C(=O)[C@](C)(O)[C@H]1[C@H](O)C[C@@]2(C)[C@@H]3CC=C4[C@@H](C=C(O)C(=O)C4(C)C)[C@]3(C)C(=O)C[C@]12C [JSI-124, cucurbitacin I]
levels of tyrosine phosphorylated Src (phosphotyrosine Src): not those of tyrosine phosphorylated Src
levels of tyrosine phosphorylated JAK2 (phosphotyrosine JAK2; A549 and MDA-MB-468 cells, various concentrations, 4 hr): effective at suppressing the levels of tyrosine phosphorylated JAK2
inhibition of phospho JAK2 levels (in words) (phosphotyrosine JAK2; A-549 cells, 0-10 μM): inhibits both phospho STAT3 and phospho JAK2 levels
pIC50 (phosphotyrosine JAK2; A-549 cells, Western blotting, read-out: IC50 for phospho-JAK2): 6.70
inhibition of growth of v-src transformed NIH 3T3 tumors (in words) (v-Src/NIH 3T3 tumors; 1 mg/Kg/day intraperitoneally): inhibits tumor growth
inhibition of growth of v-Src/NIH 3T3 tumors (v-Src/NIH 3T3 tumors; 1 mg/kg/day i.p.): 64%
